The structures appear in SMILES notation.

The test system of the first assay is NCI-H3122. The assay can be described thus: relative viability (nuclei count vs DMSO), 5 days (fraction); higher = more cells survive. The conditions noted are these: first compound 2 µM. The method, boiled down: (§1)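 Values are medians from duplicate plates. Each reflects relative viability, defined as the nuclei count of treated wells over that of vehicle wells. Lung cancer cell lines in 1536-well plates were pin-tool dosed one day after seeding with one drug alone or with a fixed anchor-drug dose plus five library-drug doses (not always all listed) in √10 steps, then fixed, stained and imaged at 4× after 5 days.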
In turn, `COCC1(CO)C(=O)C2CCN1CC2` (stereo not given) [PRIMA-1MET] + Cc1nc(Nc2ncc(C(=O)Nc3c(C)cccc3Cl)s2)cc(N2CCN(CCO)CC2)n1 [Dasatinib] (partner 0.075 µM) returned a relative viability of 0.439.

The same assay, now with this note: first compound 6.325 µM.
`COCC1(CO)C(=O)C2CCN1CC2` (stereo not given) [PRIMA-1MET] + CS(=O)(=O)N1CCN(Cc2cc3nc(-c4cccc5[nH]ncc45)nc(N4CCOCC4)c3s2)CC1 [Pictilisib] (partner 1 µM) showed a relative viability of 0.429.
In turn, `COCC1(CO)C(=O)C2CCN1CC2` (stereo not given) [PRIMA-1MET] + CCNC(=O)c1noc(-c2cc(C(C)C)c(O)cc2O)c1-c1ccc(CN2CCOCC2)cc1 [Luminespib] (partner 0.01 µM) returned a relative viability of 0.0835.
`COCC1(CO)C(=O)C2CCN1CC2` (stereo not given) [PRIMA-1MET] + CC(=O)c1c(C)c2cnc(Nc3ccc(N4CCNCC4)cn3)nc2n(C2CCCC2)c1=O [Palbociclib] (partner 0.5 µM) returned a relative viability of 0.2.
In the case of `COCC1(CO)C(=O)C2CCN1CC2` (stereo not given) [PRIMA-1MET] + Cc1nc(Nc2ncc(C(=O)Nc3c(C)cccc3Cl)s2)cc(N2CCN(CCO)CC2)n1 [Dasatinib] (partner 0.075 µM), the relative viability was 0.433.

The same assay, now with this note: first compound 20 µM.
Consider `COCC1(CO)C(=O)C2CCN1CC2` (stereo not given) [PRIMA-1MET] + CS(=O)(=O)N1CCN(Cc2cc3nc(-c4cccc5[nH]ncc45)nc(N4CCOCC4)c3s2)CC1 [Pictilisib] (partner 1 µM), for which the relative viability came out at 0.52.
In turn, `COCC1(CO)C(=O)C2CCN1CC2` (stereo not given) [PRIMA-1MET] + CCNC(=O)c1noc(-c2cc(C(C)C)c(O)cc2O)c1-c1ccc(CN2CCOCC2)cc1 [Luminespib] (partner 0.01 µM) displayed a relative viability of 0.0732.
Still for that read-out and setting: the figure for `COCC1(CO)C(=O)C2CCN1CC2` (stereo not given) [PRIMA-1MET] + CC(=O)c1c(C)c2cnc(Nc3ccc(N4CCNCC4)cn3)nc2n(C2CCCC2)c1=O [Palbociclib] (partner 0.5 µM) is 0.201; for `COCC1(CO)C(=O)C2CCN1CC2` (stereo not given) [PRIMA-1MET] + Cc1nc(Nc2ncc(C(=O)Nc3c(C)cccc3Cl)s2)cc(N2CCN(CCO)CC2)n1 [Dasatinib] (partner 0.075 µM) it is 0.856.

For another assay, the system named is SK-MES-1. The description is as above. The settings on record: first compound 0.2 µM. The method, boiled down: as §1
The molecule `COCC1(CO)C(=O)C2CCN1CC2` (stereo not given) [PRIMA-1MET] + CS(=O)(=O)N1CCN(Cc2cc3nc(-c4cccc5[nH]ncc45)nc(N4CCOCC4)c3s2)CC1 [Pictilisib] (partner 1 µM) yielded a relative viability of 0.449.
Same read-out and setting: as for `COCC1(CO)C(=O)C2CCN1CC2` (stereo not given) [PRIMA-1MET] + CCNC(=O)c1noc(-c2cc(C(C)C)c(O)cc2O)c1-c1ccc(CN2CCOCC2)cc1 [Luminespib] (partner 0.01 µM), the figure is 1.04; as for `COCC1(CO)C(=O)C2CCN1CC2` (stereo not given) [PRIMA-1MET] + CC(=O)c1c(C)c2cnc(Nc3ccc(N4CCNCC4)cn3)nc2n(C2CCCC2)c1=O [Palbociclib] (partner 0.5 µM), 0.323.
Same read-out and setting: as for `COCC1(CO)C(=O)C2CCN1CC2` (stereo not given) [PRIMA-1MET] + Cc1nc(Nc2ncc(C(=O)Nc3c(C)cccc3Cl)s2)cc(N2CCN(CCO)CC2)n1 [Dasatinib] (partner 0.075 µM), the figure is 0.303.

The same assay, now with this note: first compound 0.6325 µM.
`COCC1(CO)C(=O)C2CCN1CC2` (stereo not given) [PRIMA-1MET] + CS(=O)(=O)N1CCN(Cc2cc3nc(-c4cccc5[nH]ncc45)nc(N4CCOCC4)c3s2)CC1 [Pictilisib] (partner 1 µM) displayed a relative viability of 0.384.
In turn, `COCC1(CO)C(=O)C2CCN1CC2` (stereo not given) [PRIMA-1MET] + CCNC(=O)c1noc(-c2cc(C(C)C)c(O)cc2O)c1-c1ccc(CN2CCOCC2)cc1 [Luminespib] (partner 0.01 µM) had a relative viability of 0.579.
On the same count and under the same terms, the figure for `COCC1(CO)C(=O)C2CCN1CC2` (stereo not given) [PRIMA-1MET] + CC(=O)c1c(C)c2cnc(Nc3ccc(N4CCNCC4)cn3)nc2n(C2CCCC2)c1=O [Palbociclib] (partner 0.5 µM) is 0.371; for `COCC1(CO)C(=O)C2CCN1CC2` (stereo not given) [PRIMA-1MET] + Cc1nc(Nc2ncc(C(=O)Nc3c(C)cccc3Cl)s2)cc(N2CCN(CCO)CC2)n1 [Dasatinib] (partner 0.075 µM) it is 0.475.

The same assay, now with this note: first compound 2 µM.
`COCC1(CO)C(=O)C2CCN1CC2` (stereo not given) [PRIMA-1MET] + CS(=O)(=O)N1CCN(Cc2cc3nc(-c4cccc5[nH]ncc45)nc(N4CCOCC4)c3s2)CC1 [Pictilisib] (partner 1 µM) came in with a relative viability of 0.359.
In turn, `COCC1(CO)C(=O)C2CCN1CC2` (stereo not given) [PRIMA-1MET] + CCNC(=O)c1noc(-c2cc(C(C)C)c(O)cc2O)c1-c1ccc(CN2CCOCC2)cc1 [Luminespib] (partner 0.01 µM) came in with a relative viability of 0.885.
In turn, `COCC1(CO)C(=O)C2CCN1CC2` (stereo not given) [PRIMA-1MET] + CC(=O)c1c(C)c2cnc(Nc3ccc(N4CCNCC4)cn3)nc2n(C2CCCC2)c1=O [Palbociclib] (partner 0.5 µM) came in with a relative viability of 0.326.
On to `COCC1(CO)C(=O)C2CCN1CC2` (stereo not given) [PRIMA-1MET] + Cc1nc(Nc2ncc(C(=O)Nc3c(C)cccc3Cl)s2)cc(N2CCN(CCO)CC2)n1 [Dasatinib] (partner 0.075 µM), for which the relative viability is 0.447.

The same assay, now with this note: first compound 6.325 µM.
In the case of `COCC1(CO)C(=O)C2CCN1CC2` (stereo not given) [PRIMA-1MET] + CS(=O)(=O)N1CCN(Cc2cc3nc(-c4cccc5[nH]ncc45)nc(N4CCOCC4)c3s2)CC1 [Pictilisib] (partner 1 µM), the relative viability amounted to 0.381.
Still for that read-out and setting: as for `COCC1(CO)C(=O)C2CCN1CC2` (stereo not given) [PRIMA-1MET] + CCNC(=O)c1noc(-c2cc(C(C)C)c(O)cc2O)c1-c1ccc(CN2CCOCC2)cc1 [Luminespib] (partner 0.01 µM), the figure is 0.829; as for `COCC1(CO)C(=O)C2CCN1CC2` (stereo not given) [PRIMA-1MET] + CC(=O)c1c(C)c2cnc(Nc3ccc(N4CCNCC4)cn3)nc2n(C2CCCC2)c1=O [Palbociclib] (partner 0.5 µM), 0.291; as for `COCC1(CO)C(=O)C2CCN1CC2` (stereo not given) [PRIMA-1MET] + Cc1nc(Nc2ncc(C(=O)Nc3c(C)cccc3Cl)s2)cc(N2CCN(CCO)CC2)n1 [Dasatinib] (partner 0.075 µM), 0.286.

The values are drawn from the supplement of paper PMC10307832.
